Results as given in PubChem BioAssay (NCI).
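The compound was tested at five concentrations on cells cultured in 96-well plates, with a 48-hour exposure period. GI50 is the concentration that inhibits growth by half. At the TGI there is no net growth.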 Where a SMILES comes first, the peptide text is derived from it. The star is where a group is joined. Cbz = O=C(OCc1ccccc1)*; OBn = c1ccc(CO*)cc1

Experiments:
Assay in all cases: NCI-60 cell line screen, 48 h
[1] = test system: A498 renal
[2] = test system: CAKI-1 renal
[3] = test system: HCC-2998 colon
[4] = test system: IGROV1 ovarian
[5] = test system: NCI-H460 lung
[6] = test system: SK-MEL-5 melanoma
[7] = test system: HT29 colon
[8] = test system: MDA-MB-435
[9] = test system: NCI/ADR-RES ovarian
[10] = test system: DU-145 prostate

| SMILES | TGI [1] [µM] | TGI [2] [µM] | TGI [3] [µM] | TGI [4] [µM] | TGI [5] [µM] | TGI [6] [µM] | TGI [7] [µM] | TGI [8] [µM] | TGI [9] [µM] | TGI [10] [µM] | GI50 [2] [µM] | GI50 [10] [µM] | GI50 [7] [µM] | GI50 [4] [µM] | GI50 [8] [µM] | GI50 [5] [µM] | GI50 [6] [µM] | GI50 [1] [µM] | GI50 [3] [µM] | GI50 [9] [µM] |
| --- | --- | --- | --- | --- | --- | --- | --- | --- | --- | --- | --- | --- | --- | --- | --- | --- | --- | --- | --- | --- |
| COc1cc(/C=C/C(=O)c2sc(-n3nc(-c4ccccc4)cc3-c3ccccc3)nc2C)ccc1O | > 100 | > 100 | > 100 | > 100 | > 100 | > 100 |  |  |  |  |  |  |  |  |  |  |  |  |  |  |
| CCOC(=O)c1nc2ccc(C(F)(F)F)cc2nc1NCc1ccc(Cl)c(Cl)c1 | 92.1 | 57.5 |  | 55.4 | > 100 | > 100 | 90.9 | 56.7 | > 100 |  |  |  |  |  |  |  |  |  |  |  |
| COc1cc(Br)c(OC)c2c(OC)cc(C)cc12 | > 100 |  | > 100 | > 100 | > 100 |  | > 100 | > 100 | > 100 | > 100 |  |  |  |  |  |  |  |  |  |  |
| CC1(C)C(=O)N(O)C(C)(C)N1O | > 10 | > 10 | > 10 | > 10 | > 10 | > 10 | > 10 | > 10 | > 10 | > 10 |  |  |  |  |  |  |  |  |  |  |
| CC1=NC(=O)C(C)(c2ccccc2)N1CCc1ccccc1 (centres undefined) | > 100 | > 100 | > 100 | > 100 |  | > 100 | > 100 | > 100 | > 100 | > 100 |  |  |  |  |  |  |  |  |  |  |
| Cc1nn2c(=O)c([N+](=O)[O-])c(/C=C/c3ccccc3)nc2s1 | 59 | > 100 | 43.1 | > 67.8 | 29 | 11.2 | 7.83 | 5.06 | > 53 | > 100 |  |  |  |  |  |  |  |  |  |  |
| c1ccc(Nc2nnc(CSc3nc(-c4ccccc4)c(-c4ccccc4)[nH]3)s2)cc1 | 49.1 |  |  | 42.2 | 36.3 | 28.5 | 30.6 |  |  |  |  |  |  |  |  |  |  |  |  |  |
| N#CC(C#N)=CN1CCN(C(=O)c2ccco2)C1=S |  | 30.5 |  | 38.9 | > 100 | 8.07 | > 100 | 40 |  | > 100 | 4.76 | 5.46 | 27.7 | 6.61 | 5.28 | 3.29 | 2.87 |  |  |  |
| C[C@H]1[C@H](C)N(Cc2ccccc2)P(=O)(C(O)/C=C/c2ccccc2)N1Cc1ccccc1 (some centres undefined) | 10.3 | > 25 | 15.5 | > 25 | 10.2 | 8.7 | 12.3 | 8.79 | > 25 |  |  |  |  |  |  |  |  |  |  |  |
| CCOC(=O)c1cc(Sc2ccc(N)c(C(=O)OCC)c2)ccc1N | 72.1 | > 100 |  | > 100 | > 100 | > 100 | > 100 |  | > 100 | > 100 |  |  |  |  |  |  |  |  |  |  |
| COC(=O)CNC(=O)C(C)NC(=O)C(CC(=O)OCc1ccccc1)NC(=O)OCc1ccccc1 (stereo not drawn) (Cbz-Asp(OBn)-Ala-Gly-OMe; configuration not given here) |  | > 100 | > 100 | > 100 | > 100 | 71.8 | > 100 | > 100 | > 100 | > 100 |  |  |  |  |  |  |  |  |  |  |
| COc1ccc2c(c1)CC[C@@H]1[C@@H]2CC[C@]2(C)C(=O)C3(CCCCC3)C[C@@H]12 | > 100 | > 100 | > 100 | > 100 |  | > 100 | > 100 | > 100 | > 100 | > 100 | 31.9 | > 100 | 79.5 | > 100 | > 100 |  | > 100 | > 100 | > 100 | > 100 |
| NC1CC(=O)c2cc(Cl)sc21 (centres undefined) |  | > 100 |  | > 100 | > 100 | > 100 | > 100 | > 100 | > 100 | > 100 |  |  |  |  |  |  |  |  |  |  |
| CCOC(=O)CSc1ccnc(=O)[nH]1 | > 100 | > 100 |  | > 100 | > 100 | > 100 | > 100 |  |  |  |  |  |  |  |  |  |  |  |  |  |
| O=C(O)c1c[nH]c2c(Sc3ccccc3)nccc2c1=O | > 100 | > 100 |  | > 100 | > 100 | > 100 | > 100 | > 100 | > 100 | > 100 |  |  |  |  |  |  |  |  |  |  |
| CN(C(=O)C12C3C4C1C1C2C3C41I)C(C)(C)C (centres undefined) | > 100 | > 100 | > 100 | > 100 | > 100 | > 100 | > 100 |  |  |  |  |  |  |  |  |  |  |  |  |  |
| O=c1[nH]c(=O)n(C2OC(CO)C(O)C(F)C2O)cc1F (centres undefined) | > 100 | > 100 | > 100 |  | > 100 | > 100 | > 100 | > 100 | > 100 | > 100 |  |  |  |  |  |  |  |  |  |  |
| CCCCCCn1c(SCC)c2ccccc2c1-c1nc(F)nc(F)n1 |  | > 100 | > 100 | > 100 | > 100 | > 100 | > 100 |  |  |  |  |  |  |  |  |  |  |  |  |  |
| Cc1c2ccncc2cc2c1sc1ccncc12 | 13.8 | 12.5 | 15.4 | 39.3 | 4.77 | 5.78 | 14.5 |  |  | 6.9 |  |  |  |  |  |  |  |  |  |  |
| Cc1c2cnccc2c(C)c2c1[nH]c1ccc(O)cc12 |  | > 10 | > 10 | > 10 | 2.63 | > 10 | > 10 | 8.73 | 8.11 | 5.83 |  |  |  |  |  |  |  |  |  |  |
| COc1ccccc1C1CC(=O)CC(c2ccccc2OC)C12C(=O)NC(=S)NC2=O (centres undefined) |  | > 100 | > 100 | > 100 | > 100 | > 100 | > 100 | 94.3 | > 100 | > 100 |  |  |  |  |  |  |  |  |  |  |
| CSc1nc2ccccc2c(=O)n1/N=C1\C(=O)N(CN2CCCCC2)c2ccc(Cl)cc21 | 96.6 | > 100 |  | 75.1 | > 100 | > 100 | > 100 | > 100 | > 100 | 42.7 |  |  |  |  |  |  |  |  |  |  |
